From ChEMBL document CHEMBL2331361, “Sulfonylpiperidines as novel, antibacterial inhibitors of Gram-positive thymidylate kinase (TMK)” (Bioorg Med Chem Lett, 2013)
pIC50: −log10 of the molar value. ≈ marks a conversion by molar mass, not a printed value.

Key:
[1] = Inhibition of Streptococcus pneumoniae thymidylate kinase
Staphylococcus aureus [2] = test: Antimicrobial activity against methicillin- and quinolone-sensitive Staphylococcus aureus ARC516; assay type: functional
[3] = Inhibition of Staphylococcus aureus thymidylate kinase
Streptococcus pneumoniae = test: Antimicrobial activity against Streptococcus pneumoniae ARC548; assay type: functional
Staphylococcus aureus [4] = test: Antimicrobial activity against methicillin- and quinolone-resistant Staphylococcus aureus ARC517; assay type: functional
[5] = Distribution co-efficient, log D of the compound; details: octanol/water
Cytochrome P450 2C9 = Cytochrome P450 2C9 (Homo sapiens, UniProt P11712); test: Inhibition of CYP2C9 (unknown origin); assay type: ADME
Cytochrome P450 3A4 = Cytochrome P450 3A4 (Homo sapiens, UniProt P08684); test: Inhibition of CYP3A4 (unknown origin); assay type: ADME
[6] = Cytotoxicity against sheep erythrocytes assessed hemolysis; assay type: cell-based, Ovis aries; details: erythrocyte
Cytochrome P450 2C19 = Cytochrome P450 2C19 (Homo sapiens, UniProt P33261); test: Inhibition of CYP2C19 (unknown origin); assay type: ADME
[7] = Intrinsic clearance in rat liver microsomes; assay type: ADME, Microsome; details: read-out: CLH
[8] = Equilibrium solubility of the compound at pH 7.4; assay type: physicochemical; details: buffer
Enterococcus faecium = test: Antimicrobial activity against linezolid-resistant Enterococcus faecium ARC1239; assay type: functional
Streptococcus agalactiae = test: Antimicrobial activity against Streptococcus agalactiae; assay type: functional
Klebsiella pneumoniae = test: Antimicrobial activity against Klebsiella pneumoniae ARC1865; assay type: functional
[9] = system: Staphylococcus haemolyticus; test: Antimicrobial activity against Staphylococcus haemolyticus; assay type: functional
[10] = system: Staphylococcus epidermidis; test: Antimicrobial activity against Staphylococcus epidermidis ARC323; assay type: functional
Pseudomonas aeruginosa = test: Antimicrobial activity against Pseudomonas aeruginosa ARC545; assay type: functional
[11] = Inhibition of Escherichia coli thymidylate kinase
Cytochrome P450 2D6 = Cytochrome P450 2D6 (Homo sapiens, UniProt P10635); test: Inhibition of CYP2D6 (unknown origin); assay type: ADME
Thymidylate kinase = Thymidylate kinase (Homo sapiens, UniProt P23919); test: Inhibition of human thymidylate kinase
Cytochrome P450 1A2 = Cytochrome P450 1A2 (Homo sapiens, UniProt P05177); test: Inhibition of CYP1A2 (unknown origin); assay type: ADME
[12] = system: Staphylococcus lugdunensis; test: Antimicrobial activity against Staphylococcus lugdunensis; assay type: functional
Plasma = test: Unbound fraction in human plasma; assay type: ADME, cell-free
Escherichia coli = test: Antimicrobial activity against Escherichia coli ARC523; assay type: functional
Haemophilus influenzae = test: Antimicrobial activity against Haemophilus influenzae ARC446; assay type: functional
[13] = Intrinsic clearance in rat hepatocytes assessed per million cells; assay type: ADME, cell-based, Hepatocyte; details: read-out: CLH
[14] = biological target: Voltage-gated inwardly rectifying potassium channel KCNH2 (Homo sapiens, UniProt Q12809); test: Inhibition of human ERG
[15] = Cytotoxicity against human A549 cells; assay type: cell-based; details: read-out: MIC
Streptococcus pyogenes = test: Antimicrobial activity against Streptococcus pyogenes ARC838; assay type: functional
Candida albicans = test: Antimicrobial activity against Candida albicans; assay type: functional
Enterococcus faecalis = test: Antimicrobial activity against vancomycin-resistant Enterococcus faecalis ARC1618; assay type: functional

Chain of Cytochrome P450 2D6 (P10635 whole entry): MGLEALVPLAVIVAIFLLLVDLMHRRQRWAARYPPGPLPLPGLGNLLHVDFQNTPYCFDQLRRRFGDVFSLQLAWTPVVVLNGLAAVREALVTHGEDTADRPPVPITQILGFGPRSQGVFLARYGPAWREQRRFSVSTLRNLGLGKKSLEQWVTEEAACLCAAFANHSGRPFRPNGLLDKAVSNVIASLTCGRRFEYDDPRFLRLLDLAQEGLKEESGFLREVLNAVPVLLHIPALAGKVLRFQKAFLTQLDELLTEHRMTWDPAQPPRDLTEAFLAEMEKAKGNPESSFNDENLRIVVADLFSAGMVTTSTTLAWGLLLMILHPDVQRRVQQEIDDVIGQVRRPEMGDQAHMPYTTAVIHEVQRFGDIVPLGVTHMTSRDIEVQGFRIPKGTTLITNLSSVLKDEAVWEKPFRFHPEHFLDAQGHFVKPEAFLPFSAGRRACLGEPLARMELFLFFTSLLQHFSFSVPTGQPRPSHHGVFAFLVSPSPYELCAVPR
Chain of Cytochrome P450 2C19 (P33261 whole entry): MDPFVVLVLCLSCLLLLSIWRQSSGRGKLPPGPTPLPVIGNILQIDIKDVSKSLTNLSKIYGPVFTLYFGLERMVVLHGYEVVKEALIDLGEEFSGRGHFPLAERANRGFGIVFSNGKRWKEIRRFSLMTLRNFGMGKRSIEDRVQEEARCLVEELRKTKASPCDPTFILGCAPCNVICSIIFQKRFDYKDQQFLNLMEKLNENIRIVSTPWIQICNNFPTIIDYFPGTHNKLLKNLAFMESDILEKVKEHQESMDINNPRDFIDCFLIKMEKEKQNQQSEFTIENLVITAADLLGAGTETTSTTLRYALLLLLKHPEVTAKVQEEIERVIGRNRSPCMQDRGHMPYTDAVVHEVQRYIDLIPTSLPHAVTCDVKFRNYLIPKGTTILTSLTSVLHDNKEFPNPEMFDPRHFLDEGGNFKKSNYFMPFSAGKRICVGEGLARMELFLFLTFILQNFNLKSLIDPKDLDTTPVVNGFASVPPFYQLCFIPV
Chain of Cytochrome P450 1A2 (P05177 whole entry): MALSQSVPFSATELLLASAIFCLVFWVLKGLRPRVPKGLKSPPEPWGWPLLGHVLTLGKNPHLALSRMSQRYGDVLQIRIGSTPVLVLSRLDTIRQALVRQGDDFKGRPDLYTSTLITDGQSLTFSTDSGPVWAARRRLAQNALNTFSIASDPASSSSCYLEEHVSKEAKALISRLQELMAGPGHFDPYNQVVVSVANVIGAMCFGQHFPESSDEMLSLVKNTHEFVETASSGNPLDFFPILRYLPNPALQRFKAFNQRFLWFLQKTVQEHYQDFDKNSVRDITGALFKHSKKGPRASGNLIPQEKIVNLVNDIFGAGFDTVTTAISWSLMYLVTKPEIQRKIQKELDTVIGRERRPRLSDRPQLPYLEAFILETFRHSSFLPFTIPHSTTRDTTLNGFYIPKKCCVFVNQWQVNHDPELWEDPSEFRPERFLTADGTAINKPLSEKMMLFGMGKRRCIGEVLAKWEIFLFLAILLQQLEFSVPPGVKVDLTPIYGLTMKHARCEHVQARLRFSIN
Chain of Thymidylate kinase (P23919 whole entry): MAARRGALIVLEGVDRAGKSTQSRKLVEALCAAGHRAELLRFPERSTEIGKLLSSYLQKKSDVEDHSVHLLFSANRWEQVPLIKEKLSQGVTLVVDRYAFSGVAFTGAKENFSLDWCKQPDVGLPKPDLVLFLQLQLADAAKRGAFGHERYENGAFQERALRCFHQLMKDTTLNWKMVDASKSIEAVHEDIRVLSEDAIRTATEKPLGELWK
Chain of Cytochrome P450 2C9 (P11712 whole entry): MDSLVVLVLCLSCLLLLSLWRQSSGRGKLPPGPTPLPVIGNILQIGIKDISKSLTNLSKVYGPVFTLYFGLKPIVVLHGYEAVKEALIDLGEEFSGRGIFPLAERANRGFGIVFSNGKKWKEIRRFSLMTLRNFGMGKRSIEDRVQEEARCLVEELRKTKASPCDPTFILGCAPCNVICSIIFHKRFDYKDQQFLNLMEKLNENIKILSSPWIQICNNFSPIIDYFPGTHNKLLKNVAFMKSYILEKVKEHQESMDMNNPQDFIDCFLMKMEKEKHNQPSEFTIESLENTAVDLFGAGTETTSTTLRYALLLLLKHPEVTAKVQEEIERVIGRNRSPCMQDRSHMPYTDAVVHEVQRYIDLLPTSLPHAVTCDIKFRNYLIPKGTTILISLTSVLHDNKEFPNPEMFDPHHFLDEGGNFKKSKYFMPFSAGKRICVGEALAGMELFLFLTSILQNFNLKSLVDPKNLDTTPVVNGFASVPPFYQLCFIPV
Chain of Voltage-gated inwardly rectifying potassium channel KCNH2 (Q12809 whole entry): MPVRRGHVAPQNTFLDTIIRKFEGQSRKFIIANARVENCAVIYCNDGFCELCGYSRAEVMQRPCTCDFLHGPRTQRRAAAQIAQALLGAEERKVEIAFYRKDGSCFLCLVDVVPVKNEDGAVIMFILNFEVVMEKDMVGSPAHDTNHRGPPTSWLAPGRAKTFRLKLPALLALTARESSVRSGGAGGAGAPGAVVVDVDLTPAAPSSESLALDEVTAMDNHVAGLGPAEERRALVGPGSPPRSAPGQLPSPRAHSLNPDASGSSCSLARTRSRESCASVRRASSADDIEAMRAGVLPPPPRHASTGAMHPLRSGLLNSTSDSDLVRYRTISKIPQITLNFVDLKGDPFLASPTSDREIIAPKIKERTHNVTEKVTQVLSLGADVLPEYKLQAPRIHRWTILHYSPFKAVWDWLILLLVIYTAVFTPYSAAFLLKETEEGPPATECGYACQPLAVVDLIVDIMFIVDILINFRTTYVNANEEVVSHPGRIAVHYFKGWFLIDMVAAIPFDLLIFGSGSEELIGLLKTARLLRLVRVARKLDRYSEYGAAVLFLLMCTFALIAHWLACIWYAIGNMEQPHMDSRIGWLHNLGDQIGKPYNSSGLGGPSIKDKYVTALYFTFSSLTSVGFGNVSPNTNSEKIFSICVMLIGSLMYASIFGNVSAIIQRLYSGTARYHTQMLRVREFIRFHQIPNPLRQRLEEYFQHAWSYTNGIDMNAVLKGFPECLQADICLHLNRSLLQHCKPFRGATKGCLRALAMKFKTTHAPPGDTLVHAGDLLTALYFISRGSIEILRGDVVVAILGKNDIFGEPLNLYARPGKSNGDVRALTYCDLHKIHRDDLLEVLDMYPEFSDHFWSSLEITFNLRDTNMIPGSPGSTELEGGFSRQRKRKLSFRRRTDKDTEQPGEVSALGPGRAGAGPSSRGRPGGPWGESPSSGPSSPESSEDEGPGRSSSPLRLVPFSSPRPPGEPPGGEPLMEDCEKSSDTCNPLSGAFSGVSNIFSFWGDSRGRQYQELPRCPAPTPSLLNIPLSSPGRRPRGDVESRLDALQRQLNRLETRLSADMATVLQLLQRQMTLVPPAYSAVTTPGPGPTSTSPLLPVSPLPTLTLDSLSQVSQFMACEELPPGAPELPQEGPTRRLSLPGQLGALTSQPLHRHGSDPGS
Chain of Cytochrome P450 3A4 (P08684 whole entry): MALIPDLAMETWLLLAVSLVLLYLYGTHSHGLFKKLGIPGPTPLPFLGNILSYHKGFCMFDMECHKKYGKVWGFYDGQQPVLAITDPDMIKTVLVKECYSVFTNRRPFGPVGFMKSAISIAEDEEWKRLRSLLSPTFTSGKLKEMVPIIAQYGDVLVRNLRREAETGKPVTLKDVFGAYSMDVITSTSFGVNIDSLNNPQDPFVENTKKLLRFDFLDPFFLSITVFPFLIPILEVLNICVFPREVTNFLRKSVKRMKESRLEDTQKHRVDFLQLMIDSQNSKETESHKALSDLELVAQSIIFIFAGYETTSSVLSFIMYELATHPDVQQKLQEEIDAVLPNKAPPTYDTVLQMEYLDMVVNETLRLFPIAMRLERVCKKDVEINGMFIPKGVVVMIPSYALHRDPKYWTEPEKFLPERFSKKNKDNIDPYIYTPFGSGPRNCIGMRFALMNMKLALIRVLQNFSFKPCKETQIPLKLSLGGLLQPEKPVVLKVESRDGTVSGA

In the case of Cc1cn([C@H]2CCCN(S(=O)(=O)c3cccc(Oc4ccccc4)c3)C2)c(=O)[nH]c1=O, the pIC50 [1] was 4.68, the MIC (Staphylococcus aureus [2]) was > 64 µg/mL and the pIC50 [3] was 4.09. For the same compound, the MIC (Streptococcus pneumoniae) was > 64 µg/mL.
With Cc1cn([C@H]2CCCN(S(=O)(=O)c3cccc(Oc4ccc(Cl)c(Cl)c4)c3)C2)c(=O)[nH]c1=O the pIC50 [1] was 6.53, the MIC (Staphylococcus aureus [4]) was 4 µg/mL (≈ 7.84 µM) and the logD [5] was > 3.5. The MIC (Staphylococcus aureus [2]) was 4 µg/mL (≈ 7.84 µM), the pIC50 [3] was 5.56 and the MIC (Streptococcus pneumoniae) was 4 µg/mL (≈ 7.84 µM).
For Cc1cn([C@H]2CCCN(S(=O)(=O)c3ccc(C(=O)O)c(Oc4ccc(Cl)c(Cl)c4)c3)C2)c(=O)[nH]c1=O, the pIC50 [1] was > 8.22, the MIC (Staphylococcus aureus [4]) was > 64 µg/mL and the logD [5] was -0.9. The MIC (Staphylococcus aureus [2]) was > 64 µg/mL, the pIC50 [3] was 7.64 and the MIC (Streptococcus pneumoniae) was 4 µg/mL (≈ 7.21 µM).
In the case of Cc1cccc(Oc2cc(S(=O)(=O)N3CCC[C@H](n4cc(C)c(=O)[nH]c4=O)C3)ccc2C(=O)O)c1, the pIC50 [1] was 8.22, the MIC (Staphylococcus aureus [4]) was > 64 µg/mL and the logD [5] was -1.6. The MIC (Staphylococcus aureus [2]) was > 64 µg/mL and the MIC (Streptococcus pneumoniae) was 16 µg/mL (≈ 32 µM).
In the case of Cc1cn([C@H]2CCCN(S(=O)(=O)c3ccc(C(=O)O)c(Oc4cccc(Cl)c4)c3)C2)c(=O)[nH]c1=O, the pIC50 [1] was 9.00, the MIC (Staphylococcus aureus [4]) was > 64 µg/mL and the logD [5] was -1.3. For the same compound, the MIC (Staphylococcus aureus [2]) was > 64 µg/mL, the pIC50 [3] was 8.70 and the MIC (Streptococcus pneumoniae) was 2 µg/mL (≈ 3.85 µM).
In the case of Cc1cn([C@H]2CCCN(S(=O)(=O)c3ccc(C(N)=O)c(Oc4cccc(Cl)c4)c3)C2)c(=O)[nH]c1=O, the pIC50 [1] was 8.00, the MIC (Staphylococcus aureus [4]) was > 64 µg/mL and the logD [5] was 2. The MIC (Staphylococcus aureus [2]) was > 64 µg/mL, the pIC50 [3] was 6.11 and the MIC (Streptococcus pneumoniae) was 2 µg/mL (≈ 3.85 µM).
With Cc1cn([C@H]2CCCN(S(=O)(=O)c3ccc(C#N)c(Oc4cccc(Cl)c4)c3)C2)c(=O)[nH]c1=O the pIC50 [1] was 7.64, the MIC (Staphylococcus aureus [4]) was > 64 µg/mL and the logD [5] was 1. The MIC (Staphylococcus aureus [2]) was > 64 µg/mL, the pIC50 [3] was 6.28 and the MIC (Streptococcus pneumoniae) was 2 µg/mL (≈ 3.99 µM).
With COc1ccc(S(=O)(=O)N2CCC[C@H](n3cc(C)c(=O)[nH]c3=O)C2)cc1Oc1cccc(Cl)c1 the pIC50 [1] was 8.22, the MIC (Staphylococcus aureus [4]) was 16 µg/mL (≈ 31.6 µM) and the MIC (Staphylococcus aureus [2]) was > 64 µg/mL. For the same compound, the pIC50 [3] was 6.45 and the MIC (Streptococcus pneumoniae) was 2 µg/mL (≈ 3.95 µM).
For Cc1cn([C@H]2CCCN(S(=O)(=O)c3ccc(O)c(Oc4ccccc4)c3)C2)c(=O)[nH]c1=O, the pIC50 [1] was 7.85, the MIC (Staphylococcus aureus [4]) was 16 µg/mL (≈ 35 µM) and the logD [5] was 1.5. It also gave an MIC (Staphylococcus aureus [2]) of 16 µg/mL (≈ 35 µM), a pIC50 [3] of 6.59 and an MIC (Streptococcus pneumoniae) of 0.5 µg/mL (≈ 1.09 µM).
In the case of Cc1cn([C@H]2CCCN(S(=O)(=O)c3ccc(O)c(Oc4cccc(Cl)c4)c3)C2)c(=O)[nH]c1=O, the pIC50 (Cytochrome P450 2C9) was < 4.70, the pIC50 (Cytochrome P450 3A4) was < 4.70 and the MIC [6] was > 64 µg/mL. The pIC50 (Cytochrome P450 2C19) was < 4.70, the microsomal CLint [7] was 27 µL/min/mg and the solubility thermodynamic [8] was 193 µM (≈ 94.9 µg/mL). The MIC (Enterococcus faecium) was 0.13 µg/mL (≈ 0.264 µM), the MIC (Staphylococcus aureus [4]) was 0.5 µg/mL (≈ 1.02 µM) and the MIC90 (Staphylococcus aureus [4]) was 0.5 µg/mL (≈ 1.02 µM). For the same compound, the MIC (Streptococcus agalactiae) was 0.5 µg/mL (≈ 1.02 µM), the MIC (Klebsiella pneumoniae) was > 64 µg/mL and the MIC [9] was 0.03 µg/mL (≈ 0.061 µM). For the same compound, the logD [5] was 2.1, the MIC [10] was 2 µg/mL (≈ 4.07 µM) and the MIC (Pseudomonas aeruginosa) was > 64 µg/mL. The pIC50 [11] was 5.35, the MIC (Staphylococcus aureus [2]) was 0.25 µg/mL (≈ 0.508 µM) and the pIC50 (Cytochrome P450 2D6) was < 4.70. For the same compound, the pIC50 (Thymidylate kinase) was < 3.70, the pIC50 (Cytochrome P450 1A2) was < 4.70 and the MIC [12] was 0.016 µg/mL (≈ 0.0325 µM). The Fu (Plasma) was 1%, the MIC (Streptococcus pneumoniae) was 0.03 µg/mL (≈ 0.061 µM) and the MIC90 (Streptococcus pneumoniae) was 0.06 µg/mL (≈ 0.122 µM). For the same compound, the MIC (Escherichia coli) was > 64 µg/mL, the MIC (Haemophilus influenzae) was > 64 µg/mL and the hepatocyte CLint [13] was 45 µL/min/1e6 cells. For the same compound, the pIC50 [14] was 4.57, the MCC [15] was > 64 µg/mL and the MIC90 (Streptococcus pyogenes) was 0.5 µg/mL (≈ 1.02 µM). The MIC (Candida albicans) was > 64 µg/mL and the MIC (Enterococcus faecalis) was 0.5 µg/mL (≈ 1.02 µM).
Cc1cn([C@H]2CCCN(S(=O)(=O)c3ccc(O)c(Oc4cccc(F)c4)c3)C2)c(=O)[nH]c1=O gave a pIC50 [1] of 8.40, an MIC (Staphylococcus aureus [4]) of 16 µg/mL (≈ 33.6 µM) and a logD [5] of 1.6. The MIC (Staphylococcus aureus [2]) was 16 µg/mL (≈ 33.6 µM), the pIC50 [3] was 7.24 and the MIC (Streptococcus pneumoniae) was 0.25 µg/mL (≈ 0.526 µM).
Cc1cn([C@H]2CCCN(S(=O)(=O)c3ccc(O)c(Oc4ccc(Cl)cc4)c3)C2)c(=O)[nH]c1=O showed a pIC50 [1] of 8.10, an MIC (Staphylococcus aureus [4]) of 2 µg/mL (≈ 4.07 µM) and a logD [5] of 2.1. The MIC (Staphylococcus aureus [2]) was 1 µg/mL (≈ 2.03 µM), the pIC50 [3] was 7.74 and the MIC (Streptococcus pneumoniae) was 0.5 µg/mL (≈ 1.02 µM).
Work on Cc1cc(Oc2cc(S(=O)(=O)N3CCC[C@H](n4cc(C)c(=O)[nH]c4=O)C3)ccc2O)ccc1Cl yielded a pIC50 [1] of 7.74, an MIC (Staphylococcus aureus [4]) of 0.5 µg/mL (≈ 0.988 µM) and a logD [5] of 2.4. The MIC (Staphylococcus aureus [2]) was 1 µg/mL (≈ 1.98 µM), the pIC50 [3] was 8.52 and the MIC (Streptococcus pneumoniae) was 0.25 µg/mL (≈ 0.494 µM).
Cc1cn([C@H]2CCCN(S(=O)(=O)c3ccc(O)c(Oc4cccc(Br)c4)c3)C2)c(=O)[nH]c1=O gave a pIC50 [1] of 9.15, an MIC (Staphylococcus aureus [4]) of 0.5 µg/mL (≈ 0.932 µM) and a logD [5] of 2.3. The MIC (Staphylococcus aureus [2]) was 1 µg/mL (≈ 1.86 µM), the pIC50 [3] was 8.70 and the MIC (Streptococcus pneumoniae) was 0.1 µg/mL (≈ 0.186 µM).
With Cc1cn([C@H]2CCCN(S(=O)(=O)c3ccc(O)c(Oc4cc(F)cc(Cl)c4)c3)C2)c(=O)[nH]c1=O the pIC50 [1] was 9.15, the MIC (Staphylococcus aureus [4]) was 1 µg/mL (≈ 1.96 µM) and the MIC (Staphylococcus aureus [2]) was 1 µg/mL (≈ 1.96 µM). The pIC50 [3] was 7.92 and the MIC (Streptococcus pneumoniae) was 0.05 µg/mL (≈ 0.0981 µM).
Compound Cc1cn([C@H]2CCCN(S(=O)(=O)c3ccc(O)c(Oc4cccc(C(F)(F)F)c4)c3)C2)c(=O)[nH]c1=O has a pIC50 [1] of 8.52, an MIC (Staphylococcus aureus [4]) of 2 µg/mL (≈ 3.81 µM) and a logD [5] of 2.3. The MIC (Staphylococcus aureus [2]) was 2 µg/mL (≈ 3.81 µM), the pIC50 [3] was 7.19 and the MIC (Streptococcus pneumoniae) was 0.1 µg/mL (≈ 0.19 µM).
Cc1cn([C@H]2CCCN(S(=O)(=O)c3ccc(CO)c(Oc4cccc(Cl)c4)c3)C2)c(=O)[nH]c1=O gave a pIC50 [1] of 7.55, an MIC (Staphylococcus aureus [4]) of 64 µg/mL (≈ 126 µM) and an MIC (Staphylococcus aureus [2]) of 32 µg/mL (≈ 63.2 µM). For the same compound, the pIC50 [3] was 6.21 and the MIC (Streptococcus pneumoniae) was 2 µg/mL (≈ 3.95 µM).
Compound C[C@H]1COc2c(N3CCN(C)CC3)c(F)cc3c(=O)c(C(=O)O)cn1c23.C[C@H]1COc2c(N3CCN(C)CC3)c(F)cc3c(=O)c(C(=O)O)cn1c23.O [LEVOFLOXACIN] has an MIC90 (Staphylococcus aureus [4]) of 16 µg/mL and an MIC (Streptococcus pyogenes) of 0.25 µg/mL.
